Reference: patent US8198311B2, “Modulators of glucocorticoid receptor, AP-1, and/or NF-κB activity and use thereof” (Bristol-Myers Squibb Company, priority 2006, dated 2012)
Like-named read-outs stand apart in the source and are kept apart here.

Columns and labels:
[1] = system: AP-1 induced transcriptional activity; assay: Cellular Transrepressional Assay (AP-1 luciferase reporter in A549 cells, PMA-activated); format: cell-based; conditions: pAP-1-Luc, 10 ng/ml PMA, read-out: AP-1 (EC50, nM) (Cellular Transrepression Assay)
Procedure: To measure the ability of test molecules to inhibit AP-1 induced transcriptional activity an A549 cell was utilized which was stably transfected with a plasmid containing 7×AP-1 DNA binding sites (pAP-1-Luc plasmid, Stratagene Co. La Jolla, Calif.) followed by the gene for luciferase. Cells were activated with 10 ng/ml of phorbol myristic acid (PMA) plus or minus test molecules for 7 hours. After 7 hours a luciferase reagent was added to measure luciferase enzymatic activity in the cell. After a 10 minute incubation of luciferase reagent with cells, luminescence was measured in a TopCount luminescence counter. Repression of AP-1 activity was calculated as the percentage decrease in the signal induced by PMA alone. Test molecules were analyzed in the concentration range from 0.1 nM to 40 μM. EC50s were determined by using standard curve fitting methods such as Excel fit (Microsoft Co.).

[2] = target: T1, human glucocorticoid receptor (Homo sapiens, UniProt P04150); assay: Glucocorticoid Receptor Binding Assay (I), fluorescence polarization competitor kit (Fluormone GS Red); conditions: purified human recombinant full-length GR
T1 construct: purified human recombinant full-length glucocorticoid receptor (2 nM); purchased Invitrogen Part # 2893
T1 sequence (P04150 1-777): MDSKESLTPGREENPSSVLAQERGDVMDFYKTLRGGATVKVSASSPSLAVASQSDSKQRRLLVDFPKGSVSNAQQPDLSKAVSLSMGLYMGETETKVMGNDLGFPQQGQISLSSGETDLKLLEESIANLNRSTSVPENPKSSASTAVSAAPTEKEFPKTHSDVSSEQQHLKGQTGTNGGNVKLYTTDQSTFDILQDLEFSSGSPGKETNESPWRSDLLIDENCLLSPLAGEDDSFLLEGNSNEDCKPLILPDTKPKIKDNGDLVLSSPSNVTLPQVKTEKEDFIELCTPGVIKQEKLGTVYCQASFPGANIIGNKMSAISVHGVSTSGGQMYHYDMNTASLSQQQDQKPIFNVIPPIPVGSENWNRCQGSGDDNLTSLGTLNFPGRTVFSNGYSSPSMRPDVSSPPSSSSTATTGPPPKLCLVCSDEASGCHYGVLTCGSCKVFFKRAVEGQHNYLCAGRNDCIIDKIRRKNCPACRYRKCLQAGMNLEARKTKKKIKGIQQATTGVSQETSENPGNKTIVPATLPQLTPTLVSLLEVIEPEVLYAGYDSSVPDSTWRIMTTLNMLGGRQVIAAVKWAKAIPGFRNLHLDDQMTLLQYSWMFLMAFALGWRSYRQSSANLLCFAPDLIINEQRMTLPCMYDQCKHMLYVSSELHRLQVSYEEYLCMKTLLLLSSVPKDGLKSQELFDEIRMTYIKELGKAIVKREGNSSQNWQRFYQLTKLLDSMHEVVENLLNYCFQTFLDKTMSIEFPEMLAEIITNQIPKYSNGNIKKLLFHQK
Procedure: In order to assess the affinity of test compounds for the human glucocorticoid receptor, a commercially available kit was used (Glucocorticoid Receptor Competitor Assay Kit, Invitrogen Part # 2893). Briefly, purified human recombinant full-length glucocorticoid receptor (2 nM) was mixed with fluorescently labeled glucocorticoid (1 nM Fluormone GS Red) in the presence or absence of test compound. After two hour incubation at room temperature in the dark, the fluorescence polarization (FP) of the samples was measured. […] Test compounds were analyzed in the concentration range from 8.5E-05 μM to 5 μM.

SMILES	EC50 ([1]; Homo sapiens, A549, 7 h) [nM]	Ki [2] [nM]	EC50 ([1]; 7 hours) [nM]
CC(C)CC(c1ccc2c(cnn2-c2ccc(F)cc2)c1)C(C)(C)CNC(=O)[C@H](O)C(C)(C)C (single isomer, unassigned) [Example 69 diastA, N-(3-(1-(4-fluorophenyl)-1H-indazol-5-yl)-2,2,5-trimethylhexyl)-2-hydroxy-3,3-dimethylbutanamide]	> 10000	3.7	
CC(C)CC(c1ccc2c(cnn2-c2ccc(F)cc2)c1)C(C)(C)CNC(=O)[C@@H](O)C(C)(C)C (single isomer, unassigned) [Example 69 diastB, N-(3-(1-(4-fluorophenyl)-1H-indazol-5-yl)-2,2,5-trimethylhexyl)-2-hydroxy-3,3-dimethylbutanamide]	> 10000	3.4	
CC(CNC(=O)NC(C)(C)C)C(c1ccccc1)c1ccc2c(cnn2-c2ccc(F)cc2)c1 (single isomer, unassigned) [Example 97A, 1-tert-butyl-3-(3-(1-(4-fluorophenyl)-1H-indazol-5-yl)-2-methyl-3-phenylpropyl)urea]		4	71
CC(C)(CNC(=O)C(F)(F)F)[C@@H](c1ccccc1)c1ccc2c(cnn2-c2ccc(F)cc2)c1 [(S)-16, (S)-2,2,2-trifluoro-N-(3-(1-(4-fluorophenyl)-1H-indazol-5-yl)-2,2-dimethyl-3-phenylpropyl)acetamide]	2270		
CC(C)(CNC(=O)CC(F)(F)F)[C@@H](c1ccccc1)c1ccc2c(cnn2-c2ccc(F)cc2)c1 [(S)-17, (S)-3,3,3-trifluoro-N-(3-(1-(4-fluorophenyl)-1H-indazol-5-yl)-2,2-dimethyl-3-phenylpropyl)-propanamide]	13	0.63	
CC(C)CCC(=O)NCC(C)(C)[C@@H](c1ccccc1)c1ccc2c(cnn2-c2ccc(F)cc2)c1 [Example 2, (S)-N-(3-(1-(4-fluorophenyl)-1H-indazol-5-yl)-2,2-dimethyl-3-phenylpropyl)-4-methylpentanamide]	508		
CC(C)(CNC(=O)Cc1ccccc1)[C@@H](c1ccccc1)c1ccc2c(cnn2-c2ccc(F)cc2)c1 [Example 3, (S)-N-(3-(1-(4-fluorophenyl)-1H-indazol-5-yl)-2,2-dimethyl-3-phenylpropyl)-2-phenylacetamide]	2520		
CC(C)C(=O)NCC(C)(C)[C@@H](c1ccccc1)c1ccc2c(cnn2-c2ccc(F)cc2)c1 [Example 4, (S)-N-(3-(1-(4-fluorophenyl)-1H-indazol-5-yl)-2,2-dimethyl-3-phenylpropyl)isobutyramide]	1280		
CC(C)(C)C(=O)NCC(C)(C)[C@@H](c1ccccc1)c1ccc2c(cnn2-c2ccc(F)cc2)c1 [Example 5, (S)-N-(3-(1-(4-fluorophenyl)-1H-indazol-5-yl)-2,2-dimethyl-3-phenylpropyl)pivalamide]	1060		
CC(C)(CNS(=O)(=O)C1CC1)[C@@H](c1ccccc1)c1ccc2c(cnn2-c2ccc(F)cc2)c1 [Example 12, (S)-N-(3-(1-(4-fluorophenyl)-1H-indazol-5-yl)-2,2-dimethyl-3-phenylpropyl)cyclopropanesulfonamide]	211		
CC(C)(CNS(=O)(=O)CS(C)(=O)=O)[C@@H](c1ccccc1)c1ccc2c(cnn2-c2ccc(F)cc2)c1 [Example 14, (S)-N-(3-(1-(4-fluorophenyl)-1H-indazol-5-yl)-2,2-dimethyl-3-phenylpropyl)-1-(methylsulfonyl)methanesulfonamide]	1860		
CN(C)S(=O)(=O)NCC(C)(C)[C@@H](c1ccccc1)c1ccc2c(cnn2-c2ccc(F)cc2)c1 [Example 15, (S)-N-dimethyl-N′-(3-(1-(4-fluorophenyl)-1H-indazol-5-yl)-2,2-dimethyl-3-phenylpropyl)propane-1-sulfamide]	2780		
CC(C)(CNC(=O)c1cccs1)[C@H](c1ccccc1)c1ccc2c(cnn2-c2ccc(F)cc2)c1 [Example 20, (R)-N-(3-(1-(4-fluorophenyl)-1H-indazol-5-yl)-2,2-dimethyl-3-phenylpropyl)thiophene-2-carboxamide]	573		
C#CC(C)(C)NC(=O)NCC(C)(C)C(CC(C)C)c1ccc2c(cnn2-c2ccc(F)cc2)c1 (stereo not shown) [Example 72, 1-(3-(1-(4-fluorophenyl)-1H-indazol-5-yl)-2,2,5-trimethylhexyl)-3-(2-methylbut-3-yn-2-yl)urea]		55	
CC(C)(CNC(=O)CC(F)(F)F)C1(c2ccc3c(cnn3-c3ccc(F)cc3)c2)CCOCC1 [Example 113, 3,3,3-Trifluoro-N-(2-(4-(1-(4-fluorophenyl)-1H-indazol-5-yl)tetrahydro-2H-pyran-4-yl)-2-methylpropyl)propanamide]		22	

The next lines start with the values.

EC50 ([1]; Homo sapiens, A549, 7 h) [nM]	Ki [2] [nM]	EC50 ([1]; 7 hours) [nM]	SMILES
	2.3	52	CC(CNC(=O)CC(F)(F)F)C(c1ccccc1)c1ccc2c(cnn2-c2ccc(F)cc2)c1 (single isomer, unassigned) [Example 90A, 3,3,3-trifluoro-N-(3-(1-(4-fluorophenyl)-1H-indazol-5-yl)-2-methyl-3-phenylpropyl)propanamide]
	21	176	CC(CNC(=O)CC(F)(F)F)C(c1ccccc1)c1ccc2c(cnn2-c2ccc(F)cc2)c1 (single isomer, unassigned) [Example 90B, 3,3,3-trifluoro-N-(3-(1-(4-fluorophenyl)-1H-indazol-5-yl)-2-methyl-3-phenylpropyl)propanamide]
	2.4	7.4	CC(CNC(=O)CC(F)(F)F)C(c1ccccc1)c1ccc2c(cnn2-c2ccc(F)cc2)c1 (single isomer, unassigned) [Example 90C, 3,3,3-trifluoro-N-(3-(1-(4-fluorophenyl)-1H-indazol-5-yl)-2-methyl-3-phenylpropyl)propanamide]
	2.1	5.7	CC(CNS(=O)(=O)CC(F)(F)F)C(c1ccccc1)c1ccc2c(cnn2-c2ccc(F)cc2)c1 (single isomer, unassigned) [Example 91A, 2,2,2-trifluoro-N-(3-(1-(4-fluorophenyl)-1H-indazol-5-yl)-2-methyl-3-phenylpropyl)ethanesulfonamide]
	15	201	CC(CNS(=O)(=O)CC(F)(F)F)C(c1ccccc1)c1ccc2c(cnn2-c2ccc(F)cc2)c1 (single isomer, unassigned) [Example 91B, 2,2,2-trifluoro-N-(3-(1-(4-fluorophenyl)-1H-indazol-5-yl)-2-methyl-3-phenylpropyl)ethanesulfonamide]
	2.8	83	CC(CNS(=O)(=O)CC(F)(F)F)C(c1ccccc1)c1ccc2c(cnn2-c2ccc(F)cc2)c1 (single isomer, unassigned) [Example 91C, 2,2,2-trifluoro-N-(3-(1-(4-fluorophenyl)-1H-indazol-5-yl)-2-methyl-3-phenylpropyl)ethanesulfonamide]
	74	2500	CC(CNS(=O)(=O)CC(F)(F)F)C(c1ccccc1)c1ccc2c(cnn2-c2ccc(F)cc2)c1 (single isomer, unassigned) [Example 91D, 2,2,2-trifluoro-N-(3-(1-(4-fluorophenyl)-1H-indazol-5-yl)-2-methyl-3-phenylpropyl)ethanesulfonamide]
	43	136	CC(CNC(=O)NC(C)(C)C)C(c1ccccc1)c1ccc2c(cnn2-c2ccc(F)cc2)c1 (single isomer, unassigned) [Example 97B, 1-tert-butyl-3-(3-(1-(4-fluorophenyl)-1H-indazol-5-yl)-2-methyl-3-phenylpropyl)urea]
	3.5	158	CC(CNC(=O)NC(C)(C)C)C(c1ccccc1)c1ccc2c(cnn2-c2ccc(F)cc2)c1 (single isomer, unassigned) [Example 97C, 1-tert-butyl-3-(3-(1-(4-fluorophenyl)-1H-indazol-5-yl)-2-methyl-3-phenylpropyl)urea]
